# From the supplement of paper PMC10307832
# Columns and labels:
# Assay in all cases: relative viability (nuclei count vs DMSO), 5 days (fraction); higher = more cells survive
# BI-D1870 + AZD7762 = compound: CC(C)CCN1c2nc(Nc3cc(F)c(O)c(F)c3)ncc2N(C)C(=O)C1C [BI-D1870] + NC(=O)Nc1cc(-c2cccc(F)c2)sc1C(=O)N[C@H]1CCCNC1 [AZD7762] (partner 0.2 µM)
# How it was run: (§1)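 After 5 days of treatment, lung cancer cells in 1536-well plates were fixed and stained in a single step (final 0.05% Triton X-100, 1% formaldehyde, 1 ug/ml Hoechst) and their nuclei counted on 4× images. Treatment had been applied by pin tool the day after seeding as one drug alone or as a fixed anchor-drug dose with five library-drug doses (not always all listed) in √10 steps. Relative viability is the nuclei count of treated wells divided by that of vehicle wells, and values are medians of duplicate plates.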
# BI-D1870 + Tozasertib = compound: CC(C)CCN1c2nc(Nc3cc(F)c(O)c(F)c3)ncc2N(C)C(=O)C1C [BI-D1870] + Cc1cc(Nc2cc(N3CCN(C)CC3)nc(Sc3ccc(NC(=O)C4CC4)cc3)n2)n[nH]1 [Tozasertib] (partner 0.1 µM)
# How it was run: as §1
# BI-D1870 + Pemetrexed = compound: CC(C)CCN1c2nc(Nc3cc(F)c(O)c(F)c3)ncc2N(C)C(=O)C1C [BI-D1870] + Nc1nc2[nH]cc(CCc3ccc(C(=O)N[C@@H](CCC(=O)O)C(=O)O)cc3)c2c(=O)[nH]1 [Pemetrexed] (partner 0.2 µM)
# How it was run: as §1
# Zebularine + Phenformin = compound: O=c1ncccn1[C@@H]1O[C@H](CO)[C@@H](O)[C@H]1O [Zebularine] + N=C(N)NC(=N)NCCc1ccccc1 [Phenformin] (partner 250 µM)
# How it was run: as §1
Cell Line,relative viability (BI-D1870 + AZD7762; first compound 0.04 µM),relative viability (BI-D1870 + AZD7762; first compound 0.1265 µM),relative viability (BI-D1870 + AZD7762; first compound 0.4 µM),relative viability (BI-D1870 + AZD7762; first compound 1.265 µM),relative viability (BI-D1870 + AZD7762; first compound 4 µM),relative viability (BI-D1870 + Tozasertib; first compound 0.04 µM),relative viability (BI-D1870 + Tozasertib; first compound 0.1265 µM),relative viability (BI-D1870 + Tozasertib; first compound 0.4 µM),relative viability (BI-D1870 + Tozasertib; first compound 1.265 µM),relative viability (BI-D1870 + Tozasertib; first compound 4 µM),relative viability (BI-D1870 + Pemetrexed; first compound 0.04 µM),relative viability (BI-D1870 + Pemetrexed; first compound 0.1265 µM),relative viability (BI-D1870 + Pemetrexed; first compound 0.4 µM),relative viability (BI-D1870 + Pemetrexed; first compound 1.265 µM),relative viability (BI-D1870 + Pemetrexed; first compound 4 µM),relative viability (Zebularine + Phenformin; first compound 1 µM),relative viability (Zebularine + Phenformin; first compound 3.162 µM),relative viability (Zebularine + Phenformin; first compound 10 µM),relative viability (Zebularine + Phenformin; first compound 31.62 µM),relative viability (Zebularine + Phenformin; first compound 100 µM)
201T,0.663,0.534,0.602,0.618,0.696,0.993,0.905,0.935,0.955,0.936,0.319,0.308,0.307,0.344,0.316,0.527,0.485,0.327,0.492,0.368
A549,,,,,,,,,,,,,,,,0.209,0.171,0.169,0.131,0.122
A-427,0.86,0.717,0.848,1.01,0.796,0.202,0.213,0.21,0.238,0.221,1.02,0.982,0.994,0.963,0.784,0.361,0.302,0.262,0.279,0.213
ABC-1,0.805,0.82,0.796,0.791,0.895,0.171,0.155,0.15,0.197,0.197,,,,,,0.237,0.229,0.255,0.179,0.222
BEN,0.699,0.574,0.633,0.961,0.67,0.557,0.618,0.438,0.548,0.605,0.784,0.628,0.743,0.96,0.697,0.285,0.242,0.276,0.251,0.202
CAL-12T,0.749,0.546,0.637,0.599,0.668,0.324,0.317,0.185,0.261,0.194,1.29,1.16,1.33,1.15,0.736,0.569,0.464,0.535,0.583,0.391
COR-L23,,,,,,0.199,0.166,0.145,0.181,0.13,0.181,0.209,0.195,0.205,0.201,0.468,0.438,0.312,0.284,0.165
COR-L 105,,,,,,0.416,0.319,0.343,0.341,0.33,1.31,0.883,1.14,1.32,1.05,0.581,0.488,0.314,0.575,0.53
ChaGo-K-1,0.956,0.81,0.89,0.911,0.834,0.224,0.203,0.201,0.236,0.22,0.255,0.245,0.253,0.242,0.235,0.51,0.458,0.278,0.25,0.204
EKVX,0.632,0.72,0.61,0.742,0.701,0.433,0.379,0.378,0.287,0.206,0.399,0.418,0.359,0.67,0.391,0.238,0.248,0.218,0.238,0.251
EMC-BAC-2,1.21,1.11,1.05,1.38,1.02,0.317,0.248,0.316,0.288,0.259,0.457,0.456,0.421,0.541,0.46,0.656,0.569,0.334,0.662,0.516
EPLC-272H,0.207,0.17,0.257,0.21,0.255,0.37,0.242,0.232,0.247,0.238,0.325,0.355,0.242,0.295,0.202,0.272,0.286,0.227,0.255,0.238
H3255,0.956,0.965,0.851,1.07,0.892,0.641,0.57,0.68,0.604,0.739,0.57,0.563,0.584,0.584,0.526,0.34,0.369,0.361,0.401,0.353
HARA,0.442,0.307,0.263,0.318,0.297,0.129,0.101,0.128,0.139,0.0974,0.234,0.227,0.267,0.243,0.218,0.506,,,0.436,0.272
HCC-15,0.725,1.18,1.04,1.17,1.08,0.523,0.347,0.33,0.333,0.185,0.222,0.23,0.229,0.215,0.187,0.532,0.496,0.247,0.417,0.308
HCC-44,1.02,0.988,1,1.04,1.04,1.29,0.89,0.855,0.602,0.404,0.653,0.631,0.632,0.75,0.689,0.255,0.212,0.145,0.144,0.157
HCC-78,0.677,0.593,0.528,0.815,0.598,0.455,0.355,0.392,0.39,0.293,1.06,0.889,0.947,0.916,0.919,0.678,0.728,0.496,0.74,0.387
